# In US6737383B1, “Herbicidal oxadiazolidines” (priority 1999, dated 2004):
# Legend:
# wild oat = assay: Test B pre/postemergence wild oat; type: in vivo, Avena fatua
# Summary of the method: (§1)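 Herbicidal effect was estimated by eye on a ten-point control scale after plants spent twelve to sixteen days in a greenhouse following soil or foliar treatment. Foliar sprays targeted plants at one to four leaves; all doses were formulated in a non-phytotoxic solvent with surfactant.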
# morningglory = assay: Test B pre/postemergence morningglory; type: in vivo, Ipomoea hederacea
# Summary of the method: as §1
# blackgrass = assay: Test B pre/postemergence blackgrass; type: in vivo, Alopecurus myosuroides
# Summary of the method: as §1
# sugar beet = assay: Test B pre/postemergence sugar beet; type: in vivo, Beta vulgaris
# Summary of the method: as §1
# surinam grass = assay: Test B pre/postemergence surinam grass; type: in vivo, Brachiaria decumbens
# Summary of the method: as §1
# bamyardgrass = assay: Test B flood test barnyardgrass; type: in vivo, Echinochloa crus-galli
# Summary of the method: (§2)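 Plants were grown to the 2-leaf stage before treatment with test chemical, then held in a greenhouse for twelve to sixteen days. Injury was visually rated against untreated controls on a 0–10 scale, where 0 is no effect and 10 is complete control.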
# pigweed = assay: Test B pre/postemergence pigweed; type: in vivo, Amaranthus retroflexus
# Summary of the method: as §1
# duck salad = assay: Test B flood test duck salad; type: in vivo, Heteranthera limosa
# Summary of the method: as §2
# cocklebur = assay: Test B pre/postemergence cocklebur; type: in vivo, Xanthium strumarium
# Summary of the method: as §1
# purple nutsedge = assay: Test B pre/postemergence purple nutsedge; type: in vivo, Cyperus rotundus
# Summary of the method: as §1
# giant foxtail = assay: Test B pre/postemergence giant foxtail; type: in vivo, Setaria faberii
# Summary of the method: as §1
# wheat = assay: Test B pre/postemergence wheat; type: in vivo, Triticum aestivum
# Summary of the method: as §1
# crabgrass = assay: Test B pre/postemergence crabgrass; type: in vivo, Digitaria sanguinalis
# Summary of the method: as §1
# rice = assay: Test B flood test rice; type: in vivo, Oryza sativa
# Summary of the method: as §2
# velvetleaf = assay: Test B pre/postemergence velvetleaf; type: in vivo, Abutilon theophrasti
# Summary of the method: as §1
# [1] = Postemergence, Rate 125 g/ha, scale of 0 to 10 where 0 is no effect and 10 is complete control
# [2] = Postemergence, Rate 1000 g/ha, scale 0 to 10 (0 no effect, 10 complete control)
# [3] = Preemergence, Rate 125 g/ha, scale of 0 to 10 where 0 is no effect and 10 is complete control
# [4] = Preemergence, Rate 250 g/ha, scale 0 to 10 (0 no effect, 10 complete control)
# [5] = Preemergence, Rate 500 g/ha, scale of 0 to 10 where 0 is no effect and 10 is complete control
# [6] = Rate 500 g/ha, Postemergence, scale 0 to 10, 0 is no effect, 10 is complete control
# [7] = Rate 1000 g/ha, Preemergence, scale 0 to 10 (0 no effect, 10 complete control)
# [8] = Postemergence, Rate 250 g/ha, scale of 0 to 10, 0 is no effect, 10 is complete control
# [9] = Pre-emergence, Rate 1000 g/ha, scale 0 to 10 (0 no effect, 10 complete control)
# [10] = Rate 125 g/ha, under heading Pre-emergence, flood test species, visual evaluation after twelve to sixteen days
# [11] = Rate 250 g/ha, Pre-emergence (flood test species), scale 0 to 10, 0 is no effect, 10 is complete control
# [12] = Rate 500 g/ha, Pre-emergence section of Table B, 0 to 10 scale (0 no effect, 10 complete control)
structure (smiles),measurement,setting,value
COP(=O)(CCn1c(=O)on(C(=O)N(c2ccc(F)cc2)C(C)C)c1=O)OC [Compound 662],Wild oats plant response rating,wild oat; [1],1
same,Wild oats plant response rating,wild oat; [2],1
same,Wild oats plant response rating,wild oat; [3],0
same,"Plant response rating, Wild oats",wild oat; [4],0
same,"Plant response rating, Wild oats",wild oat; [5],9
same,Wild oats plant response rating,wild oat; [6],1
same,"Plant response rating, Wild oats",wild oat; [7],9
same,Morningglory plant response rating,morningglory; [1],7
same,Morningglory plant response rating,morningglory; [8],9
same,Morningglory plant response rating,morningglory; [2],7
same,Morningglory plant response rating,morningglory; [3],0
same,"Plant response rating, Morningglory",morningglory; [4],0
same,"Plant response rating, Morningglory",morningglory; [5],1
same,Morningglory plant response rating,morningglory; [6],7
same,"Plant response rating, Morningglory",morningglory; [7],3
same,Blackgrass plant response rating,blackgrass; [1],0
same,Blackgrass plant response rating,blackgrass; [8],0
same,Blackgrass plant response rating,blackgrass; [2],6
same,Blackgrass plant response rating,blackgrass; [3],3
same,"Plant response rating, Blackgrass",blackgrass; [4],4
same,"Plant response rating, Blackgrass",blackgrass; [5],9
same,Blackgrass plant response rating,blackgrass; [6],3
same,"Plant response rating, Blackgrass",blackgrass; [7],9
same,Sugarbeets plant response rating,sugar beet; [1],0
same,Sugarbeets plant response rating,sugar beet; [2],0
same,Sugarbeets plant response rating,sugar beet; [3],0
same,"Plant response rating, Sugarbeets",sugar beet; [4],0
same,"Plant response rating, Sugarbeets",sugar beet; [5],0
same,Sugarbeets plant response rating,sugar beet; [6],0
same,"Plant response rating, Sugarbeets",sugar beet; [7],0
same,"Plant response rating, B. signalgrass",surinam grass; [1],0
same,B. signalgrass plant response rating,surinam grass; [8],0
same,B. signalgrass plant response rating,surinam grass; [2],2
same,B. signalgrass plant response rating,surinam grass; [3],0
same,"Plant response rating, B. signalgrass",surinam grass; [4],3
same,"Plant response rating, B. signalgrass",surinam grass; [5],7
same,B. signalgrass plant response rating,surinam grass; [6],2
same,"Plant response rating, B. signalgrass",surinam grass; [7],9
same,Barnyardgrass plant response rating,bamyardgrass; [9],0
same,"Barnyardgrass plant response rating (0 to 10 scale, 0 is no effect, 10 is complete control)",bamyardgrass; [10],0
same,Barnyardgrass plant response rating,bamyardgrass; [11],0
same,Barnyardgrass plant response rating,bamyardgrass; [12],0
same,Redroot pigweed plant response rating,pigweed; [1],0
same,Redroot pigweed plant response rating,pigweed; [2],0
same,Redroot pigweed plant response rating,pigweed; [3],0
same,"Plant response rating, Redroot pigweed",pigweed; [4],3
same,"Plant response rating, Redroot pigweed",pigweed; [5],7
same,Redroot pigweed plant response rating,pigweed; [6],0
same,"Plant response rating, Redroot pigweed",pigweed; [7],7
same,Ducksalad plant response rating,duck salad; [9],0
same,"Ducksalad plant response rating (0 to 10 scale, 0 is no effect, 10 is complete control)",duck salad; [10],0
same,Ducksalad plant response rating,duck salad; [11],0
same,Ducksalad plant response rating,duck salad; [12],0
same,Cocklebur plant response rating,cocklebur; [1],0
same,Cocklebur plant response rating,cocklebur; [8],0
same,Cocklebur plant response rating,cocklebur; [2],5
same,Cocklebur plant response rating,cocklebur; [3],0
same,"Plant response rating, Cocklebur",cocklebur; [4],0
same,"Plant response rating, Cocklebur",cocklebur; [5],2
same,Cocklebur plant response rating,cocklebur; [6],0
same,"Plant response rating, Cocklebur",cocklebur; [7],9
same,Nutsedge plant response rating,purple nutsedge; [1],0
same,Nutsedge plant response rating,purple nutsedge; [3],0
same,"Plant response rating, Nutsedge",purple nutsedge; [4],4
same,"Plant response rating, Nutsedge",purple nutsedge; [5],7
same,Nutsedge plant response rating,purple nutsedge; [6],5
same,"Plant response rating, Nutsedge",purple nutsedge; [7],10
same,Giant foxtail plant response rating,giant foxtail; [1],0
same,Giant foxtail plant response rating,giant foxtail; [8],2
same,Giant foxtail plant response rating,giant foxtail; [2],8
same,Giant foxtail plant response rating,giant foxtail; [3],7
same,"Plant response rating, Giant foxtail",giant foxtail; [4],9
same,"Plant response rating, Giant foxtail",giant foxtail; [5],10
same,Giant foxtail plant response rating,giant foxtail; [6],5
same,"Plant response rating, Giant foxtail",giant foxtail; [7],10
same,Wheat plant response rating,wheat; [1],0
same,Wheat plant response rating,wheat; [2],0
same,Wheat plant response rating,wheat; [3],0
same,"Plant response rating, Wheat",wheat; [4],0
same,"Plant response rating, Wheat",wheat; [5],0
same,Wheat plant response rating,wheat; [6],0
same,"Plant response rating, Wheat",wheat; [7],5
same,Crabgrass plant response rating,crabgrass; [1],0
same,Crabgrass plant response rating,crabgrass; [8],0
same,Crabgrass plant response rating,crabgrass; [2],8
same,Crabgrass plant response rating,crabgrass; [3],0
same,"Plant response rating, Crabgrass",crabgrass; [4],4
same,"Plant response rating, Crabgrass",crabgrass; [5],6
same,Crabgrass plant response rating,crabgrass; [6],2
same,"Plant response rating, Crabgrass",crabgrass; [7],9
same,Rice plant response rating,rice; [9],0
same,"Rice plant response rating (0 to 10 scale, 0 is no effect, 10 is complete control)",rice; [10],0
same,Rice plant response rating,rice; [11],0
same,Rice plant response rating,rice; [12],0
same,Velvetleaf plant response rating,velvetleaf; [1],0
same,Velvetleaf plant response rating,velvetleaf; [2],0
same,Velvetleaf plant response rating,velvetleaf; [3],0
same,"Plant response rating, Velvetleaf",velvetleaf; [4],0
same,"Plant response rating, Velvetleaf",velvetleaf; [5],2
same,Velvetleaf plant response rating,velvetleaf; [6],0
same,"Plant response rating, Velvetleaf",velvetleaf; [7],2
